According to patent US20220064316A1, “TREATMENT OF CANCER USING HUMANIZED ANTI-BCMA CHIMERIC ANTIGEN RECEPTOR” (The Trustees of the University of Pennsylvania, priority 2014, published 2022):

Experiments:
huCAR19 CAR T cells = experiment: huCAR19 CAR T cell expansion in vivo with RAD001 (FACS); set-up: species or system NSG mice; conditions: lowest doses of RAD001, daily oral; more evident with CD4+ than CD8+ CAR T cells
Protocol: CAR T cell dosing: Mice were administered 5×10^6 CAR T cells 7 days after tumor implantation. Cells were partially thawed in a 37 degree Celsius water bath and then completely thawed by the addition of 1 ml of cold sterile PBS to the tube containing the cells. The thawed cells were transferred to a 15 ml falcon tube and adjusted to a final volume of 10 mls with PBS. The cells were washed twice at 1000 rpm for 10 minutes each time and then counted on a hemocytometer. T cells were then resuspended at a concentration of 50×10^6 CAR T cells per ml of cold PBS and kept on ice until the mice were dosed. The mice were injected intravenously via the tail vein with 100 μl of the CAR T cells for a dose of 5×10^6 CAR T cells per mouse. Eight mice per group were treated either with 100 μl of PBS alone (PBS), or humanized CD19 CAR T cells.
(§1) RAD001 dosing: A concentrated micro-emulsion of 50 mg equal to 1 mg RAD001 was formulated and then resuspended in D5W (dextrose 5% in water) at the time of dosing. Mice were orally dosed daily (via oral gavage) with 200 μl of the desired doses of RAD001.
Based on these doses, huCAR19 CAR T cells were dosed with and without RAD001 to determine the proliferative ability of these cells. The highest dose used was 3 mg/kg based on the levels of RAD001 in the blood 24 hours after dosing. […] Mice were monitored via FACS for T cell expansion.

[1] = system: humanized CD19 CART cells; experiment: In vivo proliferation of humanized CD19 CART cells with and without RAD001 dosing; conditions: RAD001 0.003 mg/kg daily, with huCAR19
Protocol: FIGS. 46A and 46B show in vivo proliferation of humanized CD19 CART cells with and without RAD001 dosing. […] Circles denote PBS; squares denote huCTL019; triangles denote huCTL019 with 3 mg/kg RAD001; inverted triangles denote huCTL019 with 0.3 mg/kg RAD001; diamonds denote huCTL019 with 0.03 mg/kg RAD001; and circles denote huCTL019 with 0.003 mg/kg RAD001.

[2] = system: CAR-expressing, transduced T cells; experiment: Proliferation of CARTs co-cultured with Nalm-6 cells in presence of RAD001; type: cell-based; conditions: low doses of RAD001, 4 days of co-culture with Nalm-6 cells
Protocol: CARTs were co-cultured with Nalm-6 cells in the presence of different concentrations of RAD001. The number of CAR-positive CD3-positive T cells (black) and total T cells (gray) was assessed after 4 days of co-culture.

[3] = RAD001 PK analysis in blood of NALM6-luc tumor bearing mice; type: in vivo, NSG mice
Protocol: as §1
PK analysis: Mice were dosed daily with RAD001 starting 7 days post tumor implantation. Dosing groups were as follows: 0.3 mg/kg, 1 mg/kg, 3 mg/kg, and 10 mg/kg. Mice were bled on days 0 and 14 following the first and last dose of RAD001, at the following time points for PK analysis: 15 minutes, 30 minutes, 1 hour, 2 hours, 4 hours, 8 hours, 12 hours, and 24 hours.

[4] = system: huCART19 cells co-cultured with Nalm-6; experiment: huCART19 proliferation in 4 day co-culture with Nalm-6 in presence of RAD001; type: cell-based, human
Source text: A humanized, anti-human CD19 CAR (huCART19) lentiviral transfer vector was used to produce the genomic material packaged into VSVg pseudotyped lentiviral particles. The amino acid and nucleotide sequence of the humanized anti-human CD19 CAR (huCART19) is CAR 1, ID 104875 described in PCT publication, WO2014/153270, filed Mar. 15, 2014, and is designated SEQ ID NOs. 85 and 31 therein.
Lentiviral transfer vector DNA is mixed with the three packaging components VSVg env, gag/pol and rev in combination with lipofectamine reagent to transfect Lenti-X 293T cells. Medium is changed after 24h and 30h thereafter, the virus-containing media is collected, filtered and stored at −80° C. CARTs are generated by transduction of fresh or frozen naïve T cells obtained by negative magnetic selection of healthy donor blood or leukopak. […] The percentage of cells transduced (expressing the CARs on the cell surface) and the level of CAR expression (relative fluorescence intensity, Geo Mean) are determined by flow cytometric analysis between days 7 and 9. […]
To evaluate the functionality of CARTs, the T cells are thawed and counted, and viability is assessed by Cellometer. […]
For measuring the proliferation of CARTs, T cells are cultured with target cells at a ratio of 1:1. […] The number of T cells is assessed by flow cytometry using counting beads as reference.

NALM6-luc tumors = experiment: NALM6-luc tumor growth under daily oral RAD001; type: in vivo, NSG mice; conditions: daily oral dosing of RAD001 alone
Protocol: NALM6-luc cells: The NALM6 human acute lymphoblastic leukemia (ALL) cell line was developed from the peripheral blood of a patient with relapsed ALL. The cells were then tagged with firefly luciferase. These suspension cells grow in RPMI supplemented with 10% heat inactivated fetal bovine serum.
Mice: 6 week old NSG (NOD.Cg-Prkdc^scidIl2rg^tm1Wjl/SzJ) mice were received from the Jackson Laboratory (stock number 005557).
Tumor implantation: NALM6-luc cells were grown and expanded in vitro in RPMI supplemented with 10% heat inactivated fetal bovine serum. The cells were then transferred to a 15 ml conical tube and washed twice with cold sterile PBS. NALM6-luc cells were then counted and resuspended at a concentration of 10×10^6 cells per milliliter of PBS. The cells were placed on ice and immediately (within one hour) implanted in the mice. NALM6-luc cells were injected intravenously via the tail vein in a 100 µl volume, for a total of 1×10^6 cells per mouse.
as §1

Compound: CO[C@H]1C[C@@H]2CC[C@@H](C)[C@@](O)(O2)C(=O)C(=O)N2CCCC[C@H]2C(=O)O[C@H]([C@H](C)C[C@@H]2CC[C@@H](OCCO)[C@H](OC)C2)CC(=O)[C@H](C)/C=C(\C)[C@@H](O)[C@@H](OC)C(=O)[C@H](C)C[C@H](C)/C=C/C=C/C=C/1C [RAD001, (1R,9S,12S,15R,16E,18R,19R,21R,23 S,24E,26E,28E,30S,32S,35R)-1,18-dihydroxy-12-{(1R)-2-[(1S,3R,4R)-4-(2-hydroxyethoxy)-3-methoxycyclohexyl]-1-methylethyl}-19,30-dimethoxy-15,17,21,23,29,35-hexamethyl-11,36-dioxa-4-aza-tricyclo[30.3.1.04,9]hexatriaconta-16,24,26,28-tetraene-2,3,10,14,20-pentaone]
- proliferation of the CAR T cells in vivo (huCAR19 CAR T cells): enhanced proliferation
- CAR T cell proliferation in vivo [1]: enhancement in CAR T cell proliferation
- proliferation of CAR-expressing, transduced T cells [2]: enhanced
- concentration at 24 h ([3]; NSG, mouse, whole blood, 24 hours after dosing, 0.3 mg/kg oral daily, day 0 and day 14, read-out: RAD001 concentrations in the blood): > 10 nM
- stability in the blood ([3]; tumor bearing mice, FIGS. 45A, 45B): fairly stable
- huCART19 proliferation versus no RAD001 ([4]; 0.0032 and 0.016 nM RAD001): higher than observed without the addition of RAD001
- RAD001 concentration at which huCART19 cells expanded ([4]; 4 day co-culture with Nalm-6, 1:1, lesser extent at higher concentrations): less than 0.016 nM
- growth of NALM6-luc tumors (NALM6-luc tumors): did not have an impact
